Measurements published in paper PMC6384703, “Astilbin Inhibits the Activity of Sortase A from Streptococcus mutans” (Molecules, 2019).

Molecular target: T1, sortase A (SrtA) (Streptococcus mutans, UniProt Q8CM62)
T1 construct: His-tagged recombinant SrtA from a 741 bp DNA fragment (pET28SmsrtA), S. mutans ATCC 25175
Assay: FRET assay with purified SrtA and fluorescent peptide Abz-LPATG-Dap(Dnp)-NH2; supported by mutants with reduced inhibition
Assay type: biochemical

T1 sequence (Q8CM62 entry or part of it): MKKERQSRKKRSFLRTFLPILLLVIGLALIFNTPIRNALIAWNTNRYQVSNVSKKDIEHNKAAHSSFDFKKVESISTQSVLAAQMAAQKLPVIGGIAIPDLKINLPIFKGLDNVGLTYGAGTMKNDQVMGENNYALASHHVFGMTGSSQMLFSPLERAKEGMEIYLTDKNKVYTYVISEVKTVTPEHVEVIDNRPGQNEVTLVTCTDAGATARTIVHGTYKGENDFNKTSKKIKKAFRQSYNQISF

## C[C@@H]1O[C@@H](O[C@H]2C(=O)c3c(O)cc(O)cc3O[C@@H]2c2ccc(O)c(O)c2)[C@H](O)[C@H](O)[C@H]1O [astilbin]
  IC50: 16.7 µM
